In brackets after ≈: the same amount, converted by molar mass.
Assays:
[1] = biological target: T1, Glucose-dependent insulinotropic receptor (Homo sapiens) (UniProt Q8TDV5); test: Agonist activity at human GPR119 expressed in HEK293 cells assessed as increase in intracellular cAMP level after 30 mins relative to oleoylethanolamide; type: functional, cell-based
T1 sequence (whole entry): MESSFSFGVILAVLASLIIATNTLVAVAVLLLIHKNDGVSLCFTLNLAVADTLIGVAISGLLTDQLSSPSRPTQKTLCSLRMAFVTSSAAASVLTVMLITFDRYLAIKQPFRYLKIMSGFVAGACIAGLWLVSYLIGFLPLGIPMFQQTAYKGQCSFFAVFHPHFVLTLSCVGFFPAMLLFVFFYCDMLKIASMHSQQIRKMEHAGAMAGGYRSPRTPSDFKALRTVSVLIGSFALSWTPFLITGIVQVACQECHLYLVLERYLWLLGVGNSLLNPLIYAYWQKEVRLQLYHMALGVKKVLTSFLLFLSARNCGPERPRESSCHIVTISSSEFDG

[2] = biological target: T2, Glucose-dependent insulinotropic receptor (Homo sapiens, UniProt Q8TDV5); test: Agonist activity at human GPR119 expressed in HEK293 cells assessed as increase in intracellular cAMP level after 30 mins; type: functional, cell-based
T2 sequence (Q8TDV5 whole entry): T1 sequence (whole entry)

[3] = biological target: Cytochrome P450 2C19 (Homo sapiens, UniProt P33261); test: Inhibition of CYP2C19 (unknown origin); type: ADME
Chain of Cytochrome P450 2C19 (P33261 whole entry): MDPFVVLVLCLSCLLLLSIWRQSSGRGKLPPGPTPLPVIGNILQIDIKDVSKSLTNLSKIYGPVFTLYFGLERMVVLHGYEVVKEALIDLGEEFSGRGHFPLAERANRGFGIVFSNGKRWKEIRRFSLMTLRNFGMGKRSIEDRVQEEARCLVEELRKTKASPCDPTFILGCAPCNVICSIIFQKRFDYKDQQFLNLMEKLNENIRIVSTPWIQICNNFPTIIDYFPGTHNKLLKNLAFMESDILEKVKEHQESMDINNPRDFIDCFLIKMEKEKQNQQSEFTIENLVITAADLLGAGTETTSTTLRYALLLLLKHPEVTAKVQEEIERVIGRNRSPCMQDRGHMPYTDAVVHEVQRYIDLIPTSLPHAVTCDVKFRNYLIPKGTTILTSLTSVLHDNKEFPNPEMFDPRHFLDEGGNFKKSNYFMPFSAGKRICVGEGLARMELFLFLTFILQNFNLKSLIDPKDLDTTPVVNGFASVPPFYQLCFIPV

[4] = Solubility in fed state simulated intestinal fluid; type: physicochemical
[5] = biological target: Cytochrome P450 2D6 (Homo sapiens, UniProt P10635); test: Inhibition of CYP2D6 (unknown origin); type: ADME
Chain of Cytochrome P450 2D6 (P10635 whole entry): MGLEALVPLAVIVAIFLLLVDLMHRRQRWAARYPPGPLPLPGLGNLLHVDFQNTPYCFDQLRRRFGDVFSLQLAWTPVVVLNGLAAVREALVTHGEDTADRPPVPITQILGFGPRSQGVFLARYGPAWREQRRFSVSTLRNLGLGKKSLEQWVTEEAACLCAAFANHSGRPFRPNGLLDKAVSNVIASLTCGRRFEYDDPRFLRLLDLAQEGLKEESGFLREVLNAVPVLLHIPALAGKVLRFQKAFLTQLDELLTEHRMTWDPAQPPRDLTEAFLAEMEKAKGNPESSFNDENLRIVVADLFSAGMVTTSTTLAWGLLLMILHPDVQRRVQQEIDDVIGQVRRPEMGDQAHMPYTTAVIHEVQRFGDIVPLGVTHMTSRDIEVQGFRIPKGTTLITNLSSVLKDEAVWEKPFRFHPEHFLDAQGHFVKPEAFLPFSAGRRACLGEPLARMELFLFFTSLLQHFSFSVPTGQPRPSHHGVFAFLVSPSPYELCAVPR

[6] = tested on: Rattus norvegicus; test: Antidiabetic activity in Sprague-Dawley rat assessed as glucose concentration-dependent insulin secretion by measuring reduction in blood glucose AUC at 0.3 mg/kg, po pretreated for 30 mins followed by glucose-challenge measured up to 120 mins by ipGTT relative to control; type: functional; design: scale not given: the % may be the effect or the level left
[7] = biological target: Cytochrome P450 3A4 (Homo sapiens, UniProt P08684); test: Inhibition of CYP3A4 (unknown origin); type: ADME
Chain of Cytochrome P450 3A4 (P08684 whole entry): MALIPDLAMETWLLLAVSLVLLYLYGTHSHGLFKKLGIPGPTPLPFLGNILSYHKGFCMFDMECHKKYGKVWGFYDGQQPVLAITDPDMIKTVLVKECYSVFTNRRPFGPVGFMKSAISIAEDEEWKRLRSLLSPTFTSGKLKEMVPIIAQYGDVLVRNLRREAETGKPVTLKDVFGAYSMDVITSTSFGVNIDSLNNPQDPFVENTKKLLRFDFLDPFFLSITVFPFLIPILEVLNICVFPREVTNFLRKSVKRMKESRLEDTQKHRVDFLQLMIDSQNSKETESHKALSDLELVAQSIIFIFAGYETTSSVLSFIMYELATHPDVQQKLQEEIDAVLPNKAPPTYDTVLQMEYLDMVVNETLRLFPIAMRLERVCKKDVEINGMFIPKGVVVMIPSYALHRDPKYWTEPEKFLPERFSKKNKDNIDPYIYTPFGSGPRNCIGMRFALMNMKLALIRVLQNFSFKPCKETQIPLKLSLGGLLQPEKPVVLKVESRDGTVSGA

[8] = biological target: Cytochrome P450 2C9 (Homo sapiens, UniProt P11712); test: Inhibition of CYP2C9 (unknown origin); type: ADME
Chain of Cytochrome P450 2C9 (P11712 whole entry): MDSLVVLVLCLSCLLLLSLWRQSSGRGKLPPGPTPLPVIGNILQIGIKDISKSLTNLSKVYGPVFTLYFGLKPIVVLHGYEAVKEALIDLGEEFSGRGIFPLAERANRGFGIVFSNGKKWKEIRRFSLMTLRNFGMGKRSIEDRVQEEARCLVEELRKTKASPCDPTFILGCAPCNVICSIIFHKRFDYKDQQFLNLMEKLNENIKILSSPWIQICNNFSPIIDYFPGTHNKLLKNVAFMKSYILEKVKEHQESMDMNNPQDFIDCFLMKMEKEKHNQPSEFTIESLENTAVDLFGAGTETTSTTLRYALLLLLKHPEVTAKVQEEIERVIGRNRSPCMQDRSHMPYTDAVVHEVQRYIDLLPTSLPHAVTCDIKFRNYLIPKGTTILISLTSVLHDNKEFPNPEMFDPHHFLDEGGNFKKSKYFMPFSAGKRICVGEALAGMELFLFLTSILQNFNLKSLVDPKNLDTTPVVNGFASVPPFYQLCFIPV

[9] = biological target: T3, Cytochrome P450 1A2 (Homo sapiens, UniProt P05177); test: Inhibition of CYP1A2 (unknown origin); type: ADME
T3 sequence (P05177 whole entry): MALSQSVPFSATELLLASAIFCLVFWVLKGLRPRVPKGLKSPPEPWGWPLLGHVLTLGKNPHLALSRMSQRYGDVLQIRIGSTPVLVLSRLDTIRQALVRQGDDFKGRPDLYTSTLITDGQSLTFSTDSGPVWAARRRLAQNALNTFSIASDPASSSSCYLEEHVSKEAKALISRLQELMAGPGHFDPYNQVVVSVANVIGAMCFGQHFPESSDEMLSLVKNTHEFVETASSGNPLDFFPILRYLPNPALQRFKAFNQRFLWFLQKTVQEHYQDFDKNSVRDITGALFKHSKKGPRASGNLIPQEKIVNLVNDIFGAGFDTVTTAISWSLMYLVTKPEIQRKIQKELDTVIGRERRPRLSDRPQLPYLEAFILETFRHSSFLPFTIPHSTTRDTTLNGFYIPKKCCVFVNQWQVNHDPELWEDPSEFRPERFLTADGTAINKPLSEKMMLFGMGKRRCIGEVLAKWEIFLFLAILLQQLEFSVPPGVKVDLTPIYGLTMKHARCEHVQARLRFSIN

[10] = tested on: Rattus norvegicus; test: Antidiabetic activity in Sprague-Dawley rat assessed as glucose concentration-dependent insulin secretion by measuring reduction in blood glucose AUC at 1 mg/kg, po pretreated for 30 mins followed by glucose-challenge measured up to 120 mins by ipGTT relative to control; type: functional; design: scale not given: the % may be the effect or the level left
[11] = biological target: T4, Cytochrome P450 2C8 (Homo sapiens, UniProt P10632); test: Inhibition of CYP2C8 (unknown origin); type: ADME
T4 sequence (P10632 whole entry): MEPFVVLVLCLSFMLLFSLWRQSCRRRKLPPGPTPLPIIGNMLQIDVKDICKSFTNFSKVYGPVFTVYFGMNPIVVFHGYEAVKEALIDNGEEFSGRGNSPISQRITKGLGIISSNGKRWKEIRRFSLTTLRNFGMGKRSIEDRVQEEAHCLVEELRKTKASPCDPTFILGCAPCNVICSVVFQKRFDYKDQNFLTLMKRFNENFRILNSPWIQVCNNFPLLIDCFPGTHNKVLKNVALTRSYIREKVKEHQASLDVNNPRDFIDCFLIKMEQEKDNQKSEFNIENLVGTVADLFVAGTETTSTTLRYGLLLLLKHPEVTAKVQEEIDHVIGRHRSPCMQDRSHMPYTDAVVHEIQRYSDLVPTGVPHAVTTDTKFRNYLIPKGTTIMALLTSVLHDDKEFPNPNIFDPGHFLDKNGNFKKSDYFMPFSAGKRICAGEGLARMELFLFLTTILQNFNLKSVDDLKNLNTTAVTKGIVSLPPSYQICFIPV

Row | SMILES | Activity [1] [%] | EC50 [2] [nM] | further results
1 | CC(C)(C)OC(=O)N1CCC(CCCOc2ccc(S(C)(=O)=O)cc2)CC1 | 106 | 353 | 
2 | CN(C)C(=O)c1ccc(OCCCCC[C@H]2CC[C@]3(CC2)COC(C)(C)C3)cc1 | 104 | 4 | IC50 [3]: > 10000 nM; solubility [4]: 442 µM (≈ 177 µg/mL); IC50 [5]: > 10000 nM; Activity [6]: 14%; IC50 [7]: > 10000 nM; IC50 [8]: > 10000 nM; IC50 [9]: > 10000 nM; Activity [10]: 33%; IC50 [11]: > 10000 nM
3 | CN(C)C(=O)c1ccc(OCCCCCC2CCN(C(=O)OC(C)(C)C)CC2)cc1 | 97 | 5 | solubility [4]: 74.2 µM (≈ 31.1 µg/mL)
4 | CN(C)C(=O)c1ccc(OCCCCCC2CCC3(CC2)OCCO3)cc1 | 92 | 88 | 
5 | CC(C)(C)OC(=O)N1CCC(CCCCCCOc2ccc(S(C)(=O)=O)cc2)CC1 | 72 | 78 | 
6 | CC(C)(C)OC(=O)N1CCC(CCCCOc2ccc(S(C)(=O)=O)cc2)CC1 | 100 | 209 | 
7 | CC(C)(C)OC(=O)N1CCC(CCCCCOc2ccc(S(C)(=O)=O)cc2)CC1 | 93 | 14 | solubility [4]: 15.9 µM (≈ 6.77 µg/mL)
8 | CN(C)C(=O)c1ccc(OCCCCCC2CCC3(CCCCC3)CC2)cc1 | 91 | 27 | 
9 | CN(C)C(=O)c1ccc(OCCCCC[C@H]2CC[C@]3(CCC(C)(C)O3)CC2)cc1 | 64 | 511 | 
10 | CN(C)C(=O)c1ccc(OCCCCC[C@H]2CC[C@@]3(CC2)CC(C)(C)CCO3)cc1 | 110 | 7 | 
11 | CN(C)C(=O)c1ccc(OCCCCCC2CCC3(CC2)OCCCO3)cc1 | 96 | 29 | 
12 | CN(C)C(=O)c1ccc(OCCCCC[C@H]2CC[C@@]3(CCCO3)CC2)cc1 | 89 | 132 | 

Now from value to compound, other results behind:

Row | Activity [1] [%] | EC50 [2] [nM] | SMILES | further results
13 | 99 | 4 | CN(C)C(=O)c1ccc(OCCCCC[C@H]2CC[C@@]3(CC2)CC(C)(C)CO3)cc1 | 
14 | 102 | 10 | CC(C)OC(=O)N1CCC(CCCCCOc2ccc(C(=O)N(C)C)cc2)CC1 | IC50 [3]: < 10000 nM; solubility [4]: 222 µM (≈ 89.7 µg/mL); IC50 [8]: < 10000 nM; IC50 [11]: < 10000 nM
15 | 84 | 95 | CN(C)C(=O)c1ccc(OCCCCC[C@H]2CC[C@]3(CCCO3)CC2)cc1 | 
16 | 96 | 36 | CN(C)C(=O)c1ccc(OCCCCC[C@H]2CC[C@]3(CCCCO3)CC2)cc1 | 
17 | 96 | 21 | CN(C)C(=O)c1ccc(OCCCCC[C@H]2CC[C@@]3(CCCCO3)CC2)cc1 | 

Reference: ChEMBL document CHEMBL4184304, “Design and synthesis of novel and potent GPR119 agonists with a spirocyclic structure” (Bioorg Med Chem Lett, 2018)
